Measurements reported in article PMC7011920, “Synthesis and biological evaluation of stilbene derivatives coupled to NO donors as potential antidiabetic agents” (Journal of Enzyme Inhibition and Medicinal Chemistry, 2018).

Key:
[1] = biological target: T1, α-Glucosidase (Saccharomyces cerevisiae, UniProt P53341); experiment: biochemical; conditions: read-out: IC50 value, α-Glucosidase inhibitory activity
T1 construct: purchased Sigma Aldrich G0660-750UN
Procedure: α-Glucosidases, enzymes anchored in the brush border of the small intestine, are responsible for catalysing the hydrolysis of carbohydrates.
α-Glucosidase (G0660-750UN, Sigma Aldrich, St. Louis, MO) and 4-nitrophenyl α-D-glucopyranoside (PNPG, Macklin) were dissolved in phosphate buffer (pH 6.8, 100 mM), and the test compounds were dissolved in DMSO solution. The experiment was divided into blank group, control group, sample blank group and sample group. The reagents were loaded in 96-well plates at the dose of the table (Table 3). The solution was bathed in 37 °C water for 10 min, after the end, enzyme solution was added. After reaction at 37 °C for 20 min, 70 µL Na2CO3 solution ([…]) was added to stop the reaction. All experiments were run in triplicate. […] Since PNPG can produce glucose and p-nitrophenol (PNP) under the action of α-glucosidase, PNP has the greatest absorption at 405 nm. The absorbance was determined by the microplate reader, and the inhibition rate of α-glucosidase and the IC50 value of each sample were calculated according to the formula. Inhibition rate %={[(AC−AB)−(AS−ASB)]/(AC−AB)}×100% where AC is the absorbance of control group; AB is the absorbance of blank group; AS is the absorbance of sample group; ASB is the absorbance of sample blank group.

[2] = system: AGEs (advanced glycation end products) formation; experiment: In vitro inhibitory activity of AGEs formation (bovine serum albumin/glucose, fluorescence)
Procedure: Advanced glycation end products are a group of complex and heterogeneous compounds, which are implicated in a number of biochemical abnormalities associated with diabetes[21]^,[22]. Therefore, the discovery of AGEs inhibitors would be beneficial to the prevention and treatment of diabetic or other pathogenic complications.
To prepare the AGE reaction solution, 10 mg/ml of bovine serum albumin in 50 mM PBS (pH 7.4) was added to 0.2 M glucose, and 0.02% sodium azide was added to prevent bacterial growth. The reaction mixture (3 ml) was then mixed with various concentrations (0.5–1000 µg/ml) of the target compounds (1 ml) dissolved in DMSO. After incubating at 37 °C for 14 d, the fluorescence intensity of AGE was determined by a fluorospectrophotometer (PE, Cincinnati, OH) with excitation and emission wavelengths at 350 nm and 420 nm[30], respectively. All experiments were run in triplicate. Aminoguanidine hydrochloride was used as a reference compound. The inhibition rate of AGEs formation and the IC50 value of each sample were calculated according to the formula. Inhibition rate %={[(AC−AB)−(AS−ASB)]/(AC−AB)}×100% where AC is the absorbance of control group (1.0 ml glucose +1.0 ml bovine serum albumin +1.0 ml sodium azide +1.0 ml DMSO); AB is the absorbance of blank group (1.0 ml PBS +1.0 ml bovine serum albumin +1.0 ml sodium azide +1.0 ml DMSO); AS is the absorbance of sample group (1.0 ml glucose +1.0 ml bovine serum albumin +1.0 ml sodium azide +1.0 ml target compound solution or aminoguanidine hydrochloride solution); ASB is the absorbance of sample blank group (1.0 ml PBS +1.0 ml bovine serum albumin +1.0 ml sodium azide +1.0 ml target compound solution or aminoguanidine hydrochloride solution).

[3] = biological target: T2, aldose reductase (ALR2) (Mus musculus, UniProt P45376); experiment: In vitro ALR2 inhibitory activity (crude enzyme, NADPH decrease at 340 nm); format: biochemical, mice; conditions: read-out: IC50 value, ALR2 inhibitory activity
T2 construct: After homogenisation and centrifugation, the crude ALR2 from mice was obtained; from tissue
Procedure: The enzyme aldose reductase (ALR2) is a member of the aldo–keto reductase superfamily. The development and progression of chronic diabetic complications are confirmed to be quite related to the activation and/or over expression of ALR2[25]. Therefore, ALR2 inhibitors may play a critical role in preventing or treating these complications.
After homogenisation and centrifugation, the crude ALR2 from mice was obtained. The inhibitory activity of the compounds on ALR2 was carried out using crude enzyme and different concentrations of the compounds (1–1000 µg/ml) in 200 mM PBS (pH 6.2) containing 0.10 mM NADPH. The reaction was initiated by addition of glyceraldehyde and the decrease in the optical density of NADPH at 340 nm was recorded for 3 min. All experiments were run in triplicate. IC50 of the compounds was calculated. The flavonoid quercetin was used as a reference in the ALR2 assay.

[4] = Oral toxicity to mice (Lorke's method); conditions: both sexes, mouse, in vivo, Kunming mice, 14 days observation
Procedure: With reference to Lorke’s method, Kunming mice were used as targets to estimate oral toxicity of each compound to mice. We select compounds 3c, 3e, and 7c at concentrations of 10, 100, and 1000 mg/kg to test their oral toxicity in the first phase, and 1600, 2900, and 5000 mg/kg at the second phase. […] No death and no appetite-suppressant effect were detected in the tested mice in 14 days. […].
Experiments were performed on Kunming mice (male and female half, body weight range, 25–30 g). Mice were housed in a climate and light controlled room with a 12 h light/dark cycle. Twelve hours before experiments, food was withheld, but animals had free access to drinking water. The compounds were suspended in vehicle (Tween-80, 0.2% in saline). The concentrations were adjusted to orally administrate 0.2 ml/10 g of bw (body weight). Mice were treated in two phases. In the first, intragastric doses of 10, 100 and 1000 mg/kg of bw of compounds were administered. On the second, the doses were adjusted to 1600, 2900 and 5000 mg/kg of bw of compounds. In both phases, mice were observed daily in a period of 14 days for mortality, toxic effects and/or changes in behavioural pattern. At the end of the experiments, the mice were sacrificed in a CO2 chamber.

T1 sequence (P53341 whole entry): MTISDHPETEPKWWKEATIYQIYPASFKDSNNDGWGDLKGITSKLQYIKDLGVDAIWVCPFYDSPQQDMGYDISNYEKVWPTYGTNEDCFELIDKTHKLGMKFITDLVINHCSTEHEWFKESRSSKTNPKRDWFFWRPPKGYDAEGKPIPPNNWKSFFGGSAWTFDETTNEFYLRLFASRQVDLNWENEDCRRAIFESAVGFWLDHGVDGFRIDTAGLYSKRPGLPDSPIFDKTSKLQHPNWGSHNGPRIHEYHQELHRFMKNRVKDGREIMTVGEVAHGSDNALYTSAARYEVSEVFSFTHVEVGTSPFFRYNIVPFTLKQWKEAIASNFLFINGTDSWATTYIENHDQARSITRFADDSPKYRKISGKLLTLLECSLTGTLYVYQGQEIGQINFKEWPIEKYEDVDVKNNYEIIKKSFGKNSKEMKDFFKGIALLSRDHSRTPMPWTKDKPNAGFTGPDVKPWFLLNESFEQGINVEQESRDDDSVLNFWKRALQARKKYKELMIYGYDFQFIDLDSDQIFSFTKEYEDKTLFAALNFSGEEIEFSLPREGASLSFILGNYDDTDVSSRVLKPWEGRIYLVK

For `COc1cc(/C=C/c2ccc(OCCCCCCO[N+](=O)[O-])cc2)cc(OC)c1` [3c], the IC50 [1] was 83.1 ± 16.2 µM, the IC50 ([2]; 50% inhibition of fluorescence intensity of AGE relative to 0.1% DMSO, mean ± SD (n = 3)) was 1.49 ± 0.2 µM and the “AGEs formation inhibitory activity compared with positive reference AG” value ([2]; ratio to AG) was “over 100 folds”. The IC50 [3] was 299 ± 22.6 µM and the LD50 at 14 days [4] was greater than 5000 mg/kg.
